≈ marks a conversion by molar mass, not a printed value. Like-named read-outs stand apart in the source and are kept apart here.
Tests used:
L. major amastigotes = assay: Apoptotic profile by flow cytometry (PE-Annexin V / 7-AAD); format: cell-based, Leishmania major; conditions: 100 μg/mL, vs negative control P < 0.001
Protocol: Apoptosis in L. major amastigotes was evaluated using flow cytometry with the BD Annexin V/PE Apoptosis Detection Kit (Fisher Scientific). […] After treatment, the parasites were washed with PBS and incubated in the dark at 25 °C with 5 μL of PE-Annexin V and 7 μL of 7-AAD for 15 min. The proportion of apoptotic parasites was then evaluated using FlowJo software.

L. major promastigotes = assay: Anti-promastigote activity (MTT, IC50); format: cell-based, Leishmania major; conditions: for IC50: Leishmania major
Protocol: (§1) To assess the impact of the D. lindbergii fraction on L. major promastigotes, amastigotes, and macrophages, cell viability was determined using the 3-(4,5-dimethylthiazol-2-yl)-2,5-diphenyl tetrazolium bromide (MTT). L. major in the logarithmic growth phase (1 × 10⁶) was plated in a 96-well microplate using RPMI-1640 medium supplemented with 10 % FBS and treated with different concentrations of the samples. The plates were then incubated. Subsequently, 10 μL of MTT (Sigma Chemical Co., St. Louis, MO) at a concentration of 5 mg/mL was added to each well. After incubation, DMSO was added to stop the reactions, and the optical density (OD) absorbance of the samples was measured at 570 nm using an ELISA plate reader (BioTek Company, USA). The results were analyzed by calculating the inhibition percentage through linear regression.
Drug susceptibility assays were conducted using promastigotes in the logarithmic growth phase. A volume of 90 μL of cultured L. major promastigotes (1 × 10⁶ cells/mL) was transferred to each well of a 96-well microplate. […] The reactions were stopped, ELISA readings were taken, and the IC₅₀ (50 % inhibitory concentration) was calculated according to established protocols.

[1] = tested on: L. major intramacrophage amastigotes; assay: Anti-amastigote activity: counting Leishman bodies in 100 Giemsa-stained macrophages; format: cell-based, Leishmania major; conditions: for IC50: Leishmania major, Macrophage
Protocol: To assess the leishmanicidal effect on L. major intramacrophage amastigotes, macrophages (10⁷ cells) were cultured for 24 h. Subsequently, 200 μL of metacyclic promastigotes were introduced to the macrophages at a 10:1 ratio. […] The cells were washed with 50 μL PBS to eliminate free parasites, fixed with methanol, and stained using Giemsa. The IC₅₀, defined as the concentration required to inhibit 50 % of the leishmanial organisms, was determined by counting Leishman bodies (amastigotes) in 100 macrophages under an optical microscope. All experiments were performed in triplicate.
To evaluate the leishmanicidal effects on L. major intramacrophage amastigotes, macrophages (1 × 10⁷ cells) were cultured for 24 h. Following this, 200 μL of metacyclic promastigotes were added to the macrophages at a 10:1 ratio. […] The cells were then washed with 50 μL PBS to remove any free parasites, fixed in methanol, and stained with Giemsa. The IC₅₀, or the concentration that inhibits 50 % of the leishmanial organisms, was assessed by counting Leishman bodies (amastigotes) in 100 macrophages under an optical microscope. Each experiment was conducted in triplicate, including negative controls (macrophages and parasites without treatment) and positive controls (macrophages and parasites treated with a known effective drug) for comparison.

[2] = Toxicity on macrophages (MTT, CC50); format: cell-based; conditions: human, THP-1 macrophage cell line
Protocol: (§2) The promastigote form of L. major (MRHO/IR/75/ER), the national standard isolate, was obtained from the Pasteur Institute of Iran and cultured at 25 °C in RPMI-1640 medium containing 10 % heat-inactivated FBS and 1 % penicillin/streptomycin. The THP-1 macrophage cell line, provided by the Kerman Leishmaniasis Research Center, was grown in Dulbecco's Modified Eagle Medium (DMEM) supplemented with 10 % FBS and 0.5 % antibiotics (Sigma, Poole, UK), and incubated at 37 °C with 5 % CO₂ [21].
as §1

[3] = tested on: macrophage cell line (THP-1); assay: Toxicity on macrophages (MTT, CC50); format: cell-based
Protocol: as §2, §1

L. major = tested on: L. major; set-up: method as in PMID 33531168; conditions: after 16 h of incubation; control 14 %; cited from earlier work
[4] = DPPH radical-scavenging antioxidant assay; conditions: DPPH method, 517 nm
Protocol: The scavenging effect on 2,2-diphenyl-1-picrylhydrazyl (DPPH) free radicals was determined based on the reduction of DPPH as a stable free radical. The optical densities were measured at a wavelength of 517 nm. The elimination of free radicals was calculated using the following formula:= (absorbance of control-absorbance of the sample) / (absorbance of control) × 100.

| Molecule | induction of apoptosis in intra-macrophage amastigotes (L. major amastigotes) | average number of intramacrophage amastigotes (Mean ± SD) ([1]; 24 h, 12.5 μg/mL) | average number of intramacrophage amastigotes (Mean ± SD) ([1]; 24 h, 25 μg/mL) | average number of intramacrophage amastigotes (Mean ± SD) ([1]; 24 h, 50 μg/mL) | average number of intramacrophage amastigotes (Mean ± SD) ([1]; 24 h, 100 μg/mL) | average number of intramacrophage amastigotes (Mean ± SD) ([1]; 24 h, 200 μg/mL) | average number of intramacrophage amastigotes (Mean ± SD) ([1]; 24 h, 400 μg/mL) | average number of intramacrophage amastigotes (Mean ± SD) ([1]; 48 h, 12.5 μg/mL) | average number of intramacrophage amastigotes (Mean ± SD) ([1]; 48 h, 25 μg/mL) | average number of intramacrophage amastigotes (Mean ± SD) ([1]; 48 h, 50 μg/mL) | average number of intramacrophage amastigotes (Mean ± SD) ([1]; 48 h, 100 μg/mL) | average number of intramacrophage amastigotes (Mean ± SD) ([1]; 48 h, 200 μg/mL) | average number of intramacrophage amastigotes (Mean ± SD) ([1]; 48 h, 400 μg/mL) | average number of intramacrophage amastigotes (Mean ± SD) ([1]; 72 h, 12.5 μg/mL) | average number of intramacrophage amastigotes (Mean ± SD) ([1]; 72 h, 25 μg/mL) | average number of intramacrophage amastigotes (Mean ± SD) ([1]; 72 h, 50 μg/mL) | average number of intramacrophage amastigotes (Mean ± SD) ([1]; 72 h, 100 μg/mL) | average number of intramacrophage amastigotes (Mean ± SD) ([1]; 72 h, 200 μg/mL) | average number of intramacrophage amastigotes (Mean ± SD) ([1]; 72 h, 400 μg/mL) | further results |
| --- | --- | --- | --- | --- | --- | --- | --- | --- | --- | --- | --- | --- | --- | --- | --- | --- | --- | --- | --- | --- |
| meglumine antimoniate [MAT] | significant induction of apoptosis | 31.1 ± 4.2 | 22.3 ± 3.1 | 18.6 ± 2.5 | 11.4 ± 2.2 | 2.1 ± 0.1 | 0.0 ± 0.0 | 39.6 ± 1.1 | 27.6 ± 1.8 | 18.4 ± 2.0 | 8.6 ± 0.9 | 2.2 ± 0.4 | 0.0 ± 0.0 | 49.3 ± 5.7 | 40.3 ± 6.4 | 31.2 ± 4.1 | 18.4 ± 2.5 | 8.6 ± 0.2 | 0.0 ± 0.0 | Promastigote (24 h) IC50 ± SD (L. major promastigotes; 24 h): 301.8 ± 24.3; Promastigote (48h) IC50 ± SD (L. major promastigotes; 48 h): 286.2 ± 17.3; Promastigote (72h) IC50 ± SD (L. major promastigotes; 72 h): 251.6 ± 28.4; Amastigote (24 h) IC50 ± SD ([1]; 24 h): 127.3 ± 14.9; Amastigote (48h) IC50 ± SD ([1]; 48 h): 112.6 ± 9.5; Amastigote (72h) IC50 ± SD ([1]; 72 h): 93.6 ± 15.2 |
| C[C@@H]1[C@H](O)[C@@H](C)/C=C/C=C/C=C/C=C/C=C/C=C/C=C/[C@H](O[C@@H]2O[C@H](C)[C@@H](O)[C@H](N)[C@@H]2O)C[C@@H]2O[C@](O)(C[C@@H](O)C[C@@H](O)[C@H](O)CC[C@@H](O)C[C@@H](O)CC(=O)O[C@H]1C)C[C@H](O)[C@H]2C(=O)O [Amphotericin B] | significant induction of apoptosis | 34.2 ± 3.6 | 25.3 ± 4.2 | 20.4 ± 1.8 | 13.6 ± 2.6 | 3.6 ± 0.4 | 0.0 ± 0.0 | 41.4 ± 3.0 | 30.1 ± 2.2 | 21.6 ± 2.4 | 10.1 ± 1.9 | 2.6 ± 0.3 | 0.0 ± 0.0 | 50.4 ± 4.8 | 42.3 ± 5.2 | 33.4 ± 3.0 | 20.4 ± 2.4 | 10.3 ± 0.8 | 0.0 ± 0.0 | CC50 at 24 h ([2]; 24 h): 792 ± 28.6 µg/mL (≈ 857 µM); CC50 at 48 h ([2]; 48 h): 772 ± 24.6 µg/mL (≈ 836 µM); CC50 at 72 h ([2]; 72 h): 749 ± 18.6 µg/mL (≈ 810 µM); SI= CC50 Macrophages/IC50 Amastigotes (Selectivity Index) ([3]; 24 h): 5.93; SI = CC50Macrophages/IC50Amastigotes (Selectivity Index) ([3]; 72 h): 7.40; IC50 (L. major promastigotes; 24 h, read-out: Promastigote (24 h) IC50 ± SD): 308 ± 22 µg/mL (≈ 333 µM); IC50 (L. major promastigotes; 48 h, read-out: Promastigote (48h) IC50 ± SD): 294 ± 15.3 µg/mL (≈ 318 µM); IC50 (L. major promastigotes; 72 h, read-out: Promastigote (72h) IC50 ± SD): 264 ± 20.7 µg/mL (≈ 285 µM); IC50 ([1]; 24 h, read-out: Amastigote (24 h) IC50 ± SD): 134 ± 18.6 µg/mL (≈ 145 µM); IC50 ([1]; 48 h, read-out: Amastigote (48h) IC50 ± SD): 129 ± 14.2 µg/mL (≈ 139 µM); IC50 ([1]; 72 h, read-out: Amastigote (72h) IC50 ± SD): 101 ± 18.3 µg/mL (≈ 110 µM) |
| COc1cc(/C=C/C(=O)CC(=O)/C=C/c2ccc(O)c(OC)c2)ccc1O [curcumin] | – | – | – | – | – | – | – | – | – | – | – | – | – | – | – | – | – | – | – | maximum accumulation of S-phase cells (L. major): about 33% |
| COc1ccc(O)c(C(C)(C)C)c1 [BHA, butylated hydroxyanisole] | – | – | – | – | – | – | – | – | – | – | – | – | – | – | – | – | – | – | – | IC50 of DPPH radical scavenging [4]: 249.3 µg/mL |
